The subject of data set [1] is tubulin. The conditions noted are these: cited from earlier work.
For another data set, the system named is CYP 3A4. The conditions noted are these: CYP 3A4 in humans; cited from earlier work.
In data set [2] the test system is microtubules. The conditions noted are these: cited from earlier work.
For data set [3], the system named is CSC-enriched (CD133++) HCT-116 human colon cancer cell line. The conditions noted are these: cited from earlier work.
Data set [4] deals with MCF7-S human breast carcinoma. The conditions noted are these: read-out: IC50 MCF7-S (breast); 72 h drug exposure; cited from earlier work.
The subject of data set [5] is NCI/ADR multidrug-resistant human ovarian carcinoma. The following applies: cited from earlier work; for R/S resistance factor: (IC50 NCI/ADR)/(IC50 MCF7-S); for IC50: read-out: IC50 NCI/ADR (ovarian), 72 h drug exposure.
For data set [6], the system named is HT-29 human colon cancer cell line. The following applies: read-out: IC50 HT-29 (colon); 72 h drug exposure; cited from earlier work.
The test system of data set [7] is microtubule protein (tubulin). The conditions noted are these: microtubule protein 1 mg/mL, 37 °C, Drug 10 μM; cited from earlier work.
Data set [8] has as its system PANC-1 human pancreatic cancer cell line. The conditions noted are these: read-out: IC50 PANC-1 (pancreatic); 72 h drug exposure; cited from earlier work.
Data set [9] has as its system tubulin. Put plainly: Critical concentration of tubulin for microtubule assembly. It is filed as biochemical. The following applies: from Table 3.
In data set [10] the test system is CSC-enriched (CD133++) HCT-116 human colon cancer cell line. Put plainly: Cytotoxicity against CSC-enriched HCT-116. It is filed as cell-based. The conditions noted are these: CSC-enriched HCT-116, from Table 2.
For data set [11], the system named is microtubules. Put plainly: Binding to microtubules, fluorescent ligand displacement method. The conditions noted are these: from Table 4.

Like-named read-outs stand apart in the source and are kept apart here.

As to `CC(=O)O[C@@]12CO[C@@H]1C[C@H](O)[C@@]1(C)C(=O)[C@H](OC(=O)C3CC3)C3=C(C)[C@@H](OC(=O)[C@H](O)[C@H](C=C(C)C)NC(=O)OC(C)(C)C)C[C@@](O)([C@@H](OC(=O)c4ccccc4)[C@H]21)C3(C)C` [SB-T-1214], in the data set with tubulin [1], the “Critical concentration of tubulin required for microtubule assembly” value was 0.9 ± 0.2 µM. Also, the Primary metabolism result with CYP 3A4 was “hydroxylation primarily at the two allylic methyl groups of the 3′-isobutenyl group”. The “Binding constant with microtubules” value in the data set on microtubules [2] (26 °C) is given as 12±2 x10^7 M^−1; in the data set with microtubules [2] (37 °C) it was 7±1 x10^7 M^−1. Moreover, the IC50 in [3] is 0.28 ± 0.1 nM.
Regarding `CC(=O)O[C@@]12CO[C@@H]1C[C@H](O)[C@@]1(C)C(=O)[C@H](OC(=O)N(C)C)C3=C(C)[C@@H](OC(=O)[C@H](O)[C@H](C=C(C)C)NC(=O)OC(C)(C)C)C[C@@](O)([C@@H](OC(=O)c4ccccc4)C12)C3(C)C` (some centres unmarked) [SB-T-1216], the Primary metabolism result in the data set on CYP 3A4 is “hydroxylation primarily at the two allylic methyl groups of the 3′-isobutenyl group”. The IC50 in data set [3] was 0.83 ± 0.05 nM.
On to `CC(=O)O[C@H]1C(=O)[C@@]2(C)C([C@H](OC(=O)c3cccc(N=[N+]=[N-])c3)[C@]3(O)C[C@H](OC(=O)[C@H](O)[C@H](C=C(F)F)NC(=O)OC(C)(C)C)C(C)=C1C3(C)C)[C@]1(OC(C)=O)CO[C@@H]1C[C@@H]2O` (some centres unmarked) [SB-T-12851-3], for which the IC50 was 0.092 nM in data set [4] and 0.34 nM in [5]. In addition, the R/S resistance factor in [5] is 3.7.
On to `CC(=O)O[C@H]1C(=O)[C@@]2(C)C([C@H](OC(=O)c3ccccc3)[C@]3(O)C[C@H](OC(=O)[C@H](O)[C@H](C=C(F)F)NC(=O)OC(C)(C)C)C(C)=C1C3(C)C)[C@]1(OC(C)=O)CO[C@@H]1C[C@@H]2O` (some centres unmarked) [SB-T-12851], for which the IC50 in data set [6] is 0.41 nM; in data set [4] it was 0.099 nM; in data set [8] it was 1.19 nM; in data set [5], 0.95 nM. In addition, the “Rate of GTP-independent tubulin polymerization” value (shortened to “Rate”) in data set [7] is “much faster than paclitaxel”. For the same compound, the R/S resistance factor in data set [5] is 9.6.
As for `COc1cccc(C(=O)O[C@H]2[C@@H]3[C@]4(OC(C)=O)CO[C@@H]4C[C@H](O)[C@@]3(C)C(=O)[C@H](OC(=O)C3CC3)C3=C(C)[C@@H](OC(=O)[C@H](O)[C@H](C=C(F)F)NC(=O)OC(C)(C)C)C[C@]2(O)C3(C)C)c1` [SB-T-12852-1], the IC50 in data set [4] was 0.092 nM. In data set [5], the R/S resistance factor is reported as 5.2 and the IC50 is 0.48 nM.
Regarding `CC(=O)O[C@@]12CO[C@@H]1C[C@H](O)[C@@]1(C)C(=O)[C@H](OC(=O)C3CC3)C3=C(C)[C@@H](OC(=O)[C@H](O)[C@H](C=C(F)F)NC(=O)OC(C)(C)C)C[C@@](O)([C@@H](OC(=O)c4cccc(F)c4)[C@H]21)C3(C)C` [SB-T-12852-2], in [4], the IC50 was 0.071 nM. In data set [5], the R/S resistance factor was 24 and the IC50 is 1.72 nM.
Regarding `CC(=O)O[C@@]12CO[C@@H]1C[C@H](O)[C@@]1(C)C(=O)[C@H](OC(=O)C3CC3)C3=C(C)[C@@H](OC(=O)[C@H](O)[C@H](C=C(F)F)NC(=O)OC(C)(C)C)C[C@@](O)([C@@H](OC(=O)c4cccc(N=[N+]=[N-])c4)[C@H]21)C3(C)C` [SB-T-12852-3], the IC50 in data set [4] is 0.092 nM. Further, in data set [5], the R/S resistance factor was 4.9 and the IC50 is 0.45 nM.
`CC(=O)O[C@@]12CO[C@@H]1C[C@H](O)[C@@]1(C)C(=O)[C@H](OC(=O)C3CC3)C3=C(C)[C@@H](OC(=O)[C@H](O)[C@H](C=C(F)F)NC(=O)OC(C)(C)C)C[C@@](O)([C@@H](OC(=O)c4ccccc4)[C@H]21)C3(C)C` [SB-T-12852]: the IC50 in data set [6] is 0.85 nM; in data set [4], 0.12 nM; in data set [8] it was 5.85 nM; in [5], 6 nM. In addition, in [5], the R/S resistance factor was 50.
As to `CCC(=O)O[C@H]1C(=O)[C@@]2(C)C([C@H](OC(=O)c3ccccc3)[C@]3(O)C[C@H](OC(=O)[C@H](O)[C@H](C=C(F)F)NC(=O)OC(C)(C)C)C(C)=C1C3(C)C)[C@]1(OC(C)=O)CO[C@@H]1C[C@@H]2O` (some centres unmarked) [SB-T-12853], the IC50 in data set [6] is 0.34 nM; in [4], 0.12 nM; in data set [8], 0.65 nM; in data set [5], 1.2 nM. Also, the “Rate” value in data set [7] is “much faster than paclitaxel”. The R/S resistance factor in data set [5] is listed as 10.
`CC(=O)O[C@@]12CO[C@@H]1C[C@H](O)[C@@]1(C)C(=O)[C@H](OC(=O)N(C)C)C3=C(C)[C@@H](OC(=O)[C@H](O)[C@H](C=C(F)F)NC(=O)OC(C)(C)C)C[C@@](O)([C@@H](OC(=O)c4ccccc4)C12)C3(C)C` (some centres unmarked) [SB-T-12854]: the “Critical concentration of tubulin required for microtubule assembly” value in the data set with tubulin [1] was 0.3 ± 0.1 µM. Further, the “Potency in inducing tubulin assembly relative to SB-T-1214” value in the data set on tubulin [9] is given as “three times higher potency than SB-T-1214”. Also, the IC50 in data set [6] is 0.46 nM; in [4], 0.13 nM; in data set [8] it was 1.58 nM; in [3], 0.14 ± 0.05 nM; in data set [5], 4.3 nM. Further, in data set [7], the “Rate” value is listed as “much faster than paclitaxel”. For the same compound, the “Binding constant with microtubules” value with microtubules [2] (26 °C) is reported as 15±3 x10^7 M^−1; in the data set on microtubules [2] (37 °C) it was 10±1 x10^7 M^−1. The “times higher potency than conventional anticancer drugs” value in [10] is 230-33,000 times. In the data set with microtubules [11], the “times stronger binding to microtubules than paclitaxel” value is reported as “ca. 10 times”. Further, the R/S resistance factor in data set [5] is 33.
On to `COC(=O)O[C@H]1C(=O)[C@@]2(C)C([C@H](OC(=O)c3cccc(OC)c3)[C@]3(O)C[C@H](OC(=O)[C@H](O)[C@H](C=C(F)F)NC(=O)OC(C)(C)C)C(C)=C1C3(C)C)[C@]1(OC(C)=O)CO[C@@H]1C[C@@H]2O` (some centres unmarked) [SB-T-12855-1], for which the IC50 in data set [4] was 0.078 nM; in data set [5] it was 0.5 nM. In data set [5], the R/S resistance factor is recorded as 6.4.
Regarding `COC(=O)O[C@H]1C(=O)[C@@]2(C)C([C@H](OC(=O)c3cccc(N=[N+]=[N-])c3)[C@]3(O)C[C@H](OC(=O)[C@H](O)[C@H](C=C(F)F)NC(=O)OC(C)(C)C)C(C)=C1C3(C)C)[C@]1(OC(C)=O)CO[C@@H]1C[C@@H]2O` (some centres unmarked) [SB-T-12855-3], the IC50 in data set [4] is 0.078 nM. For the same compound, in data set [5], the R/S resistance factor is 5.3 and the IC50 is 0.4 nM.
Turning to `COC(=O)O[C@H]1C(=O)[C@@]2(C)C([C@H](OC(=O)c3cccc(Cl)c3)[C@]3(O)C[C@H](OC(=O)[C@H](O)[C@H](C=C(F)F)NC(=O)OC(C)(C)C)C(C)=C1C3(C)C)[C@]1(OC(C)=O)CO[C@@H]1C[C@@H]2O` (some centres unmarked) [SB-T-12855-4], the IC50 in [4] was 0.099 nM. Also, in [5], the R/S resistance factor is recorded as 12 and the IC50 was 1.16 nM.
For `N.N.[Cl][Pt][Cl]` [cisplatin], in [3], the IC50 was 4540 nM.
Regarding `COc1cccc2c1C(=O)c1c(O)c3c(c(O)c1C2=O)C[C@@](O)(C(=O)CO)C[C@@H]3O[C@H]1C[C@H](N)[C@H](O)[C@H](C)O1` [doxorubicin], the IC50 in [3] is 78 ± 28.2 nM.
As to `CN(Cc1cnc2nc(N)nc(N)c2n1)c1ccc(C(=O)N[C@@H](CCC(=O)O)C(=O)O)cc1` [methotrexate], the IC50 in data set [3] is 32.7 ± 11.2 nM.
For `CC(=O)O[C@H]1C(=O)[C@@]2(C)[C@H]([C@H](OC(=O)c3ccccc3)[C@]3(O)C[C@H](OC(=O)[C@H](O)[C@@H](NC(=O)c4ccccc4)c4ccccc4)C(C)=C1C3(C)C)[C@]1(OC(C)=O)CO[C@@H]1C[C@@H]2O` [paclitaxel, reference compound], the IC50 in data set [6] was 3.6 nM; in data set [4] it was 1.2 nM; in data set [8], 25.7 nM; in data set [3], 33.8 ± 3.33 nM; in data set [5], 300 nM. In addition, in data set [5], the R/S resistance factor is 250.
Take `CC[C@@]1(O)C(=O)OCc2c1cc1n(c2=O)Cc2cc3c(CN(C)C)c(O)ccc3nc2-1` [topotecan]: the IC50 in data set [3] was 451 ± 12 nM.

Values taken from publication PMC5560435 (Journal of fluorine chemistry, 2017).
